# Source: patent US20200291018A1, “TAM KINASE INHIBITORS” (SYROS PHARMACEUTICALS, INC., priority 2017, published 2020)
# Tests used:
# [1] = biological target: T1, AXL (Homo sapiens, UniProt P30530); experiment: TR-FRET kinase activity assay, AXL; format: biochemical; conditions: ATP at Km, 60 minutes
# T1 sequence (P30530 26-894): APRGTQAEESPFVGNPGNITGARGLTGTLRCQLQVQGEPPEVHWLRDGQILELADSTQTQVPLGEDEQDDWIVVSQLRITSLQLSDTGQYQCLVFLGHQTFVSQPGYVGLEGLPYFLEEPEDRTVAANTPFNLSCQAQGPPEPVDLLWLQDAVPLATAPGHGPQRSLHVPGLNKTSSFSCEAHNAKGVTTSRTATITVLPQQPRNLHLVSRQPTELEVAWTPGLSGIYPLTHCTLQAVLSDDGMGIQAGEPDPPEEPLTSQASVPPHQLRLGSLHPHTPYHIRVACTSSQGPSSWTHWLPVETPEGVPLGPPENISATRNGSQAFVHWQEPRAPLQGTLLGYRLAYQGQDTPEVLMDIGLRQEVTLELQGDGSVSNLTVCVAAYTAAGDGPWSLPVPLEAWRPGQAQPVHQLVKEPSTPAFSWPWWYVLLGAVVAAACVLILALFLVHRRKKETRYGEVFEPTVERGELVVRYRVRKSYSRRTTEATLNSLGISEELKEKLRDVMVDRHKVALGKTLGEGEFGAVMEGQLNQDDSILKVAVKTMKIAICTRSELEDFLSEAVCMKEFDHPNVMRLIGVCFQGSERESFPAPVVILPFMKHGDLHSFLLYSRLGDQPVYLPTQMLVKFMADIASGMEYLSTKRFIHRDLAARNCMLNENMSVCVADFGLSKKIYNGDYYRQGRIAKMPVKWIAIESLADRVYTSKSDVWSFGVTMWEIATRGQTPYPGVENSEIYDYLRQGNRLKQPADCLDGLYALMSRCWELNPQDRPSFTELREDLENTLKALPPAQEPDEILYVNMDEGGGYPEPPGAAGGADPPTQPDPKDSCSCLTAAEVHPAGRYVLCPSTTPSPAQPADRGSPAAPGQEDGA
# Method in brief: (§1)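 Enzyme, fluorescent-labeled peptide substrate and compound were mixed, then ATP was added at each enzyme's Km. Buffer was 50 mM HEPES pH 7.5, 10 mM MgCl2, 1 mM EGTA, 0.01% Brij 35, 1 mM DTT at RT. After 60 min, EDTA quench and 30 min with Eu-anti-phosphotyrosine-site antibody; TR-FRET read gave IC50.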
# [2] = biological target: T2, MERTK (Homo sapiens, UniProt Q12866); experiment: TR-FRET kinase activity assay, MERTK; format: biochemical; conditions: for IC50: TR-FRET activity assay, ATP at Km, 60 minutes, read-out: Mer IC50; for Mer/Flt3 ratio (FLT3 IC50/Mer IC50): ratio calculated as FLT3 IC50/Mer IC50
# T2 sequence (Q12866 21-999): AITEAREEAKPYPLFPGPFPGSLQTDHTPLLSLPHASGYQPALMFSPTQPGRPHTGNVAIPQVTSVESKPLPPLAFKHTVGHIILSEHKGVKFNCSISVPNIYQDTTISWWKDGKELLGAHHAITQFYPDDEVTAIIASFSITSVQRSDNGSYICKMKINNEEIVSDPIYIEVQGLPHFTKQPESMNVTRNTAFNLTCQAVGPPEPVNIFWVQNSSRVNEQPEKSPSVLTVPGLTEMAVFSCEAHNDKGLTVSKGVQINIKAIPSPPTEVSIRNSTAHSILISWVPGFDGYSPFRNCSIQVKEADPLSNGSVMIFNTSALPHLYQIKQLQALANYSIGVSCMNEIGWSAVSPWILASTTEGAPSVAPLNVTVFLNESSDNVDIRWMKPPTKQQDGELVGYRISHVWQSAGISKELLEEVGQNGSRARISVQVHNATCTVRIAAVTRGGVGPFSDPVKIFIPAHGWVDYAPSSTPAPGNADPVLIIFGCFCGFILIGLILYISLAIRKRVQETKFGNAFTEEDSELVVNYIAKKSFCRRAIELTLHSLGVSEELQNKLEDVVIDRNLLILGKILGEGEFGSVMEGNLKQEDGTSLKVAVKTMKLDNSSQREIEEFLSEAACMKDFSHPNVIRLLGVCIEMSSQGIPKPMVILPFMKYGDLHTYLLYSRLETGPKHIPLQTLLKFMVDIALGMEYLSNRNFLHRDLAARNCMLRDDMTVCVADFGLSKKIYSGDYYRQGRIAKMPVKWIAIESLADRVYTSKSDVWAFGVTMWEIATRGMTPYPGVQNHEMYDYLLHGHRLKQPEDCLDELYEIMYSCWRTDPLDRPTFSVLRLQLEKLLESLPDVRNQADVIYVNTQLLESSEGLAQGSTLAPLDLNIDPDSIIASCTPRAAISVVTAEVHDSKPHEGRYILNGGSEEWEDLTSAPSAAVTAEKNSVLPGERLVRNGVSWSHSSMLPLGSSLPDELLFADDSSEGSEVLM
# Method in brief: as §1
Compound,IC50 [1],IC50 [2],Mer/Flt3 ratio (FLT3 IC50/Mer IC50) [2]
CCOc1ncc(CC2CCN(C)CC2)c2nc(N[C@@H](C)CC)ncc12 [Compound 253],1000 to 10000 nM,1000 to 10000 nM,++ (a ratio of between 10 and 100)
CCOc1ncc(CC2CCN(C(=O)OC(C)(C)C)CC2)c2nc(N[C@@H](C)CC)ncc12 [Compound 254],1000 to 10000 nM,1000 to 10000 nM,+ (a ratio of >2.0 and <10)
CC[C@H](C)Nc1ncc2c(C)ncc([C@H]3CC[C@H](O)CC3)c2n1 [Compound 255],≤ 100 nM,≤ 100 nM,+++ (a ratio of >100)
CC[C@H](C)Nc1ncc2c(OCC34CCC(O)(CC3)CC4)ncc([C@H]3CC[C@H](O)CC3)c2n1 [Compound 256],1000 to 10000 nM,≤ 100 nM,+++ (a ratio of >100)
CC[C@H](C)Nc1ncc2c(=O)n(CC34CCC(O)(CC3)CC4)cc([C@H]3CC[C@H](O)CC3)c2n1 [Compound 257],≤ 100 nM,≤ 100 nM,+++ (a ratio of >100)
COC[C@H](C)Nc1ncc2c(OC3CC(C)(C)N(C)C(C)(C)C3)ncc([C@H]3CC[C@H](O)CC3)c2n1 [Compound 259],≤ 100 nM,≤ 100 nM,+++ (a ratio of >100)
COC[C@H](C)Nc1ncc2c(O[C@H]3CC[C@H](O)CC3)ncc([C@H]3CC[C@H](O)CC3)c2n1 [Compound 260],100 to 1000 nM,≤ 100 nM,+++ (a ratio of >100)
CC[C@H](C)Nc1ncc2c(O[C@H]3CC[C@H](C(C)(C)O)CC3)ncc([C@H]3CC[C@H](O)CC3)c2n1 [Compound 261],100 to 1000 nM,≤ 100 nM,++ (a ratio of between 10 and 100)
O[C@H]1CC[C@H](c2cnc(OC3CCNCC3)c3cnc(Nc4ccccc4F)nc32)CC1 [Compound 262],100 to 1000 nM,≤ 100 nM,++ (a ratio of between 10 and 100)
CC[C@H](C)Nc1ncc2c(=O)n(C[C@@H]3COCCN3C)cc([C@H]3CC[C@H](O)CC3)c2n1 [Compound 263],100 to 1000 nM,≤ 100 nM,+++ (a ratio of >100)
CC[C@H](C)Nc1ncc2c(=O)n(CC34CCC(N(C)C)(CC3)CC4)cc([C@H]3CC[C@H](O)CC3)c2n1 [Compound 264],≤ 100 nM,≤ 100 nM,+++ (a ratio of >100)
CC[C@H](C)Nc1ncc2c(=O)n(C[C@H]3COCCN3C)cc([C@H]3CC[C@H](O)CC3)c2n1 [Compound 265],1000 to 10000 nM,≤ 100 nM,+++ (a ratio of >100)
CC[C@H](C)Nc1ncc2c(=O)n([C@H]3CC[C@H](N(C)C)C3)cc([C@H]3CC[C@H](O)CC3)c2n1 [Compound 266],100 to 1000 nM,≤ 100 nM,+++ (a ratio of >100)
CC[C@H](C)Nc1ncc2c(O[C@H]3CC[C@H](N(C)C)C3)ncc([C@H]3CC[C@H](O)CC3)c2n1 [Compound 267],≤ 100 nM,≤ 100 nM,+++ (a ratio of >100)
CC(C)(C)Nc1ncc2c(OC3CCNCC3)ncc([C@H]3CC[C@H](O)CC3)c2n1 [Compound 268],100 to 1000 nM,≤ 100 nM,+++ (a ratio of >100)
O[C@H]1CC[C@H](c2cnc(OC3CCNCC3)c3cnc(Nc4ccc(F)cc4)nc32)CC1 [Compound 269],≤ 100 nM,≤ 100 nM,+ (a ratio of >2.0 and <10)
O[C@H]1CC[C@H](c2cnc(OC3CCNCC3)c3cnc(Nc4cccc(F)c4)nc32)CC1 [Compound 270],≤ 100 nM,≤ 100 nM,+ (a ratio of >2.0 and <10)
CC[C@H](C)Nc1ncc2c(=O)n(-c3ccc(N)cc3)cc([C@H]3CC[C@H](O)CC3)c2n1 [Compound 271],1000 to 10000 nM,≤ 100 nM,+++ (a ratio of >100)
COC(=O)c1ccc(Nc2ncc3c(OC4CCNCC4)ncc([C@H]4CC[C@H](O)CC4)c3n2)cc1 [Compound 272],≤ 100 nM,≤ 100 nM,+ (a ratio of >2.0 and <10)
CCOc1ncc([C@H]2CC[C@H](O)CC2)c2nc(N[C@@H](C)COC)ncc12 [Compound 273],100 to 1000 nM,≤ 100 nM,+++ (a ratio of >100)
CC(C)Nc1ncc2c(OC3CCOCC3)ncc(-c3cccc(CC#N)c3)c2n1 [Compound 274],100 to 1000 nM,≤ 100 nM,++ (a ratio of between 10 and 100)
CC[C@H](C)Nc1ncc2c(OC3C[C@@H](C)O[C@@H](C)C3)ncc([C@H]3CC[C@H](O)CC3)c2n1 (stereo partly drawn) [Compound 275],1000 to 10000 nM,≤ 100 nM,+++ (a ratio of >100)
CC(C)Nc1ncc2c(OC3CCOCC3)ncc(-c3cccc(CC(=O)O)c3)c2n1 [Compound 276],1000 to 10000 nM,1000 to 10000 nM,++ (a ratio of between 10 and 100)
O[C@H]1CC[C@H](c2cnc(OC3CCOCC3)c3cnc(N[C@H]4CCNC4)nc32)CC1 [Compound 277],1000 to 10000 nM,1000 to 10000 nM,NS (a ratio of ≤2.0)
